Test results as given in ChEMBL document CHEMBL1201862, “PubChem BioAssay data set” (2004).
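Results reflect a 48-hour exposure of cells in 96-well plates to compound at five concentrations. GI50: concentration for 50% inhibition of growth.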 Active and inactive are the calls of the source. No stated cut-off is given here; in the data, active = GI50 up to about 1.1 µM and inactive = higher.

Key:
Assay in all cases: NCI-60 cell line screen, 48 h
[1] = tested on: HT-29
[2] = tested on: M14
[3] = tested on: KM12
[4] = tested on: CCRF-CEM
[5] = tested on: OVCAR-3
[6] = tested on: NCI-H23
[7] = tested on: UACC-62
[8] = tested on: EKVX
[9] = tested on: NCI-H522
[10] = tested on: UACC-257
[11] = tested on: SK-MEL-28
[12] = tested on: SNB-19
[13] = tested on: Malme-3M
[14] = tested on: HCT-116
[15] = tested on: HOP-92
[16] = tested on: U-251
[17] = tested on: ACHN
[18] = tested on: NCI-H460
[19] = tested on: OVCAR-5
[20] = tested on: RXF 393

Compound	GI50 [1]	GI50 [2]	GI50 [3]	GI50 [4]	GI50 [5]	GI50 [6]	GI50 [7]	GI50 [8]	GI50 [9]	GI50 [10]	GI50 [11]	GI50 [12]	GI50 [13]	GI50 [14]	GI50 [15]	GI50 [16]	GI50 [17]	GI50 [18]	GI50 [19]	GI50 [20]
O=C1OC(Cl)C(N=P(c2ccccc2)(c2ccccc2)c2ccccc2)=C1Cl (stereo not given)	> 100 µM (inactive)	> 100 µM (inactive)	> 100 µM (inactive)	> 100 µM (inactive)	> 100 µM (inactive)	> 100 µM (inactive)	> 100 µM (inactive)	> 100 µM (inactive)	> 100 µM (inactive)	> 100 µM (inactive)	> 100 µM (inactive)	> 100 µM (inactive)	> 100 µM (inactive)	> 100 µM (inactive)	> 100 µM (inactive)	–	–	–	–	–
COc1ccc(C(=O)C(c2ccc(OC)cc2)C2(O)C(=O)Nc3ccccc32)cc1 (stereo not given)	94.6 µM (inactive)	> 100 µM (inactive)	> 100 µM (inactive)	> 100 µM (inactive)	> 100 µM (inactive)	> 100 µM (inactive)	> 100 µM (inactive)	> 100 µM (inactive)	> 100 µM (inactive)	> 100 µM (inactive)	> 100 µM (inactive)	> 100 µM (inactive)	> 100 µM (inactive)	> 100 µM (inactive)	> 100 µM (inactive)	> 100 µM (inactive)	> 100 µM (inactive)	–	–	–
CC(C)=CCC/C(C)=C/CC/C(C)=C/CC/C(C=O)=C/CC/C(C)=C\CC/C(C)=C/CC/C(C)=C/CC/C(C)=C/CC1=CC(=O)C=CC1=O	–	45.3 µM (inactive)	81.3 µM (inactive)	72.8 µM (inactive)	54.2 µM (inactive)	22.9 µM (inactive)	21.1 µM (inactive)	> 100 µM (inactive)	14.9 µM (inactive)	48 µM (inactive)	> 100 µM (inactive)	> 100 µM (inactive)	21.8 µM (inactive)	73.5 µM (inactive)	> 100 µM (inactive)	69.7 µM (inactive)	> 100 µM (inactive)	> 100 µM (inactive)	> 100 µM (inactive)	–
Cc1ccc(S(=O)(=O)/N=C(\NN)Nc2ccc(Cl)cc2)cc1	> 100 µM (inactive)	> 100 µM (inactive)	> 100 µM (inactive)	> 100 µM (inactive)	> 100 µM (inactive)	> 100 µM (inactive)	> 100 µM (inactive)	> 100 µM (inactive)	–	> 100 µM (inactive)	> 100 µM (inactive)	> 100 µM (inactive)	–	> 100 µM (inactive)	> 100 µM (inactive)	> 100 µM (inactive)	> 100 µM (inactive)	> 100 µM (inactive)	> 100 µM (inactive)	60.7 µM (inactive)
Cc1ccc(S(=O)(=O)N/N=C2/CCC3(O)CC2(C)CCC2[C@H]3CC2(C)C)cc1 (stereo not given in full)	33.6 µM (inactive)	43.4 µM (inactive)	32.6 µM (inactive)	12 µM (inactive)	40.2 µM (inactive)	37.3 µM (inactive)	20.3 µM (inactive)	31.7 µM (inactive)	26.2 µM (inactive)	37.8 µM (inactive)	24.9 µM (inactive)	37.7 µM (inactive)	35.3 µM (inactive)	24.8 µM (inactive)	29.2 µM (inactive)	17.5 µM (inactive)	29.8 µM (inactive)	22.8 µM (inactive)	29.4 µM (inactive)	–
CC1(C)CC(=O)C(CC2C(=O)c3ccccc3C2=O)C(=O)C1C(=O)C(=O)Nc1cccc2ccc(O)cc12 (stereo not given)	> 100 µM (inactive)	> 100 µM (inactive)	> 100 µM (inactive)	< 0.01 µM (active)	48.9 µM (inactive)	67.1 µM (inactive)	> 100 µM (inactive)	43.9 µM (inactive)	> 100 µM (inactive)	> 100 µM (inactive)	> 100 µM (inactive)	> 100 µM (inactive)	> 100 µM (inactive)	> 100 µM (inactive)	70.3 µM (inactive)	> 100 µM (inactive)	> 100 µM (inactive)	> 100 µM (inactive)	> 100 µM (inactive)	–
CC(=O)c1ccccc1NCC(=O)Nn1cnc2ccc(S(=O)(=O)Nc3ccccc3C(C)=O)cc2c1=O	> 100 µM (inactive)	> 100 µM (inactive)	> 100 µM (inactive)	> 100 µM (inactive)	> 100 µM (inactive)	> 100 µM (inactive)	> 100 µM (inactive)	> 100 µM (inactive)	> 100 µM (inactive)	> 100 µM (inactive)	> 100 µM (inactive)	> 100 µM (inactive)	> 100 µM (inactive)	> 100 µM (inactive)	> 100 µM (inactive)	> 100 µM (inactive)	> 100 µM (inactive)	> 100 µM (inactive)	> 100 µM (inactive)	–
